The Ki is a measure of affinity in units of concentration, obtained from inhibition or displacement. A lower Ki goes with a stronger hold on the target. As a reminder, the ED50 is the dose at which the effect has come halfway, by size or by number of responders. Low readings indicate an effect at a small dose, high ones a need for a large dose. Broadly, the bioavailability is dose-corrected exposure relative to a reference, in per cent. A word on the Kp: it is the ratio of the level in a tissue or fluid to that in plasma or blood. Usually half-life stands for the time needed for the level to fall by half in the phase considered. Higher therefore signals slow loss.

The results in this text go back to ChEMBL document CHEMBL1134976, “SB-656104-A: a novel 5-HT(7) receptor antagonist with improved in vivo properties” (Bioorg Med Chem Lett, 2002).

Data set [1] concerns the target T1, 5-hydroxytryptamine receptor 7 (Homo sapiens, UniProt P34969). As to the kind of experiment: Binding affinity for human cloned 5-hydroxytryptamine 7 receptor in HEK 293 using [3H]5-CT as a radioligand. The format is cell-based, HEK293.
Data set [2] has as its target T2, Alpha-1B adrenergic receptor (Homo sapiens, UniProt P35368).
T2 sequence (P35368 whole entry): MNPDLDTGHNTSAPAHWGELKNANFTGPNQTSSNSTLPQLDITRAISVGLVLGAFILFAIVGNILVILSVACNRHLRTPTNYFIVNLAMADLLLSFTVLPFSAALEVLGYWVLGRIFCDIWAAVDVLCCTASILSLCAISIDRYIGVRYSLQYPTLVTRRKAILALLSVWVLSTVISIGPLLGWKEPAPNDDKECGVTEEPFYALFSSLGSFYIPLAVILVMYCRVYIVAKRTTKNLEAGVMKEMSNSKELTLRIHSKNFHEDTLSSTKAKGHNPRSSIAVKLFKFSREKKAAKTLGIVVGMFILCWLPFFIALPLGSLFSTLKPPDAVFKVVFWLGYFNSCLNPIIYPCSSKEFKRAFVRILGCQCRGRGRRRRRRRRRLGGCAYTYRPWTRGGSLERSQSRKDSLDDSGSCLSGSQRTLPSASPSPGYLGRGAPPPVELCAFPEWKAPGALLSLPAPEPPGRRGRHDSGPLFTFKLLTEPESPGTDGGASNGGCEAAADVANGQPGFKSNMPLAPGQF
As to the kind of experiment: Binding affinity towards Alpha-1B adrenergic receptor.

The target in data set [3] is T1, 5-hydroxytryptamine receptor 7. Put plainly: Compound was tested for its binding affinity in 5-hydroxytryptamine 7 receptor (using human cloned receptors in HEK 293 and [3H]5-CT as a radioligand ). The class given is cell-based, HEK293.
The target of data set [4] is T3, 5-hydroxytryptamine receptor 1F (Homo sapiens, UniProt P30939).
T3 sequence (P30939 whole entry): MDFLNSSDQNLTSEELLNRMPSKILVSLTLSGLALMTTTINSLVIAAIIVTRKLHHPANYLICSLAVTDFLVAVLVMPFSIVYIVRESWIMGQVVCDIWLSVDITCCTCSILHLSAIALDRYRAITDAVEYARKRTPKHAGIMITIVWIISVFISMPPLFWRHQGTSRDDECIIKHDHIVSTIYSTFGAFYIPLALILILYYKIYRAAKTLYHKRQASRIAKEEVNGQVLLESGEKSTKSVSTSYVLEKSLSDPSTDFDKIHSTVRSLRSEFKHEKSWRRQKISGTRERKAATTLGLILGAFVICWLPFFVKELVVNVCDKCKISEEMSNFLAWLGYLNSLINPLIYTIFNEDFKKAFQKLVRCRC
Put plainly: Compound was tested for its binding affinity for human cloned 5-hydroxytryptamine 1F receptor in CHO using [3H]5-HT as a radioligand.

In data set [5] the target is T4, 5-hydroxytryptamine receptor 1A (Homo sapiens, UniProt P08908).
T4 sequence (P08908 whole entry): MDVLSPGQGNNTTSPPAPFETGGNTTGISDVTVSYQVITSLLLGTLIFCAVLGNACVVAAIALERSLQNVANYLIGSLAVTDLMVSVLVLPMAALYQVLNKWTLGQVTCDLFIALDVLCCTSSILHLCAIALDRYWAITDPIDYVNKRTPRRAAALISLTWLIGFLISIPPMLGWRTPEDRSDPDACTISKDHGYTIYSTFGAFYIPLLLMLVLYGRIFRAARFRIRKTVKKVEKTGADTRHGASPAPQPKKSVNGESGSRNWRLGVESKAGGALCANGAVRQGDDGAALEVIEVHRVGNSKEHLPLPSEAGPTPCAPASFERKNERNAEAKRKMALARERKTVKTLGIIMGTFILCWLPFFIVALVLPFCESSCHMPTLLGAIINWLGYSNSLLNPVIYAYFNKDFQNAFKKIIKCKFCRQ
As to the kind of experiment: Compound was tested for its binding affinity for human cloned 5-hydroxytryptamine 1A receptor in HEK 293 using [3H]5-CT as a radioligand. The format is cell-based, HEK293.

A short description of data set [6]: Compound was tested for the lower blood clearance in rat. The format is ADME, organism-based. The conditions noted are these: read-out: CLb.
In data set [7] the target is 5-hydroxytryptamine receptor 6 (Homo sapiens, UniProt P50406). Put plainly: Compound was tested for its binding affinity in 5-hydroxytryptamine 6 receptor (using human cloned receptors in HeLa and [3H]LSD as a radioligand ).
Data set [8] is filed under the species Cavia porcellus. Put plainly: Effective dose to antagonise 5-CT induced hypothermia in guinea pig at 2 hours. The format is functional.
Data set [9] deals with 5-hydroxytryptamine receptor 2A (Homo sapiens, UniProt P28223). Put plainly: Compound was tested for its binding affinity for human cloned 5-hydroxytryptamine 2A receptor in HEK 293 using [3H]ketanserin as a radioligand. The class given is cell-based, HEK293.
Data set [10] is described as follows: Oral bioavailability in rat. The format is ADME, organism-based. Particulars: in vivo.
In data set [11] the target is 5-hydroxytryptamine receptor 1D (Homo sapiens, UniProt P28221). As to the kind of experiment: Compound was tested for its binding affinity for human cloned 5-hydroxytryptamine 1D receptor in CHO using [3H]5-HT as a radioligand.
Data set [12] in a line: Steady state brain :blood ratio was determined. The format is ADME, organism-based. Particulars: rat, brain and blood.
In data set [13] the target is 5-hydroxytryptamine receptor 2B (Homo sapiens, UniProt P41595). As to the kind of experiment: Compound was tested for its binding affinity for human cloned 5-hydroxytryptamine 2B receptor in HEK 293 using [3H]ketanserin as a radioligand. The format is cell-based, HEK293.
For data set [14], the target named is T5, 5-hydroxytryptamine receptor 2C (Homo sapiens, UniProt P28335).
T5 sequence (P28335 whole entry): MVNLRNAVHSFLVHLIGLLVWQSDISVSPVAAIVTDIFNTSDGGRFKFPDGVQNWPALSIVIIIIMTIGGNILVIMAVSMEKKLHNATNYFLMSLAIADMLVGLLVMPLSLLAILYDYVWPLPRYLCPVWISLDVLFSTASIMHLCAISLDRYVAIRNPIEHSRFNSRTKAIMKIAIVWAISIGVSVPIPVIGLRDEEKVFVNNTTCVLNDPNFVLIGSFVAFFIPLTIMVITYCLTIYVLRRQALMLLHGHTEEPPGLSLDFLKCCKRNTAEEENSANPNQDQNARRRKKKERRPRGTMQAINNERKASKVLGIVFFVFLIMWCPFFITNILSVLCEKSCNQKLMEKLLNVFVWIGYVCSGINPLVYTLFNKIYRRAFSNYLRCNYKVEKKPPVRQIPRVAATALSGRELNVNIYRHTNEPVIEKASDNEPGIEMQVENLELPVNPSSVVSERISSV
As to the kind of experiment: Compound was tested for its binding affinity for human cloned 5-hydroxytryptamine 2C receptor in HEK 293 using [3H]mesulergine as a radioligand. The class given is cell-based, HEK293.

Data set [15] addresses 5-hydroxytryptamine receptor 1B (Homo sapiens, UniProt P28222). As to the kind of experiment: Compound was tested for its binding affinity for human cloned 5-hydroxytryptamine 1B receptor in CHO using [3H]5-HT as a radioligand.
The target in data set [16] is 5-hydroxytryptamine receptor 1E (Homo sapiens, UniProt P28566). Put plainly: Compound was tested for its binding affinity for human cloned 5-hydroxytryptamine 1E receptor in CHO using [3H]5-HT as a radioligand.
For data set [17], the target named is 5-hydroxytryptamine receptor 5A (Homo sapiens, UniProt P47898). Put plainly: Compound was tested for its binding affinity in 5-hydroxytryptamine 5A receptor (using human cloned receptors in HEK 293 and [3H]5-CTas a radioligand ). The class given is cell-based, HEK293.
Data set [18] in a line: Half life was determined. The class given is ADME, organism-based. The conditions noted are these: rat, in vivo.
The target in data set [19] is 5-hydroxytryptamine receptor 4 (Homo sapiens, UniProt Q13639). As to the kind of experiment: Compound was tested for its binding affinity for 5-hydroxytryptamine 4 receptor.
Data set [20] relates to Cavia porcellus. As to the kind of experiment: Effective dose to antagonise 5-CT induced hypothermia in guinea pig at 1 hour after intraperitoneal administration. Particulars: ip.

T1 sequence (P34969 whole entry): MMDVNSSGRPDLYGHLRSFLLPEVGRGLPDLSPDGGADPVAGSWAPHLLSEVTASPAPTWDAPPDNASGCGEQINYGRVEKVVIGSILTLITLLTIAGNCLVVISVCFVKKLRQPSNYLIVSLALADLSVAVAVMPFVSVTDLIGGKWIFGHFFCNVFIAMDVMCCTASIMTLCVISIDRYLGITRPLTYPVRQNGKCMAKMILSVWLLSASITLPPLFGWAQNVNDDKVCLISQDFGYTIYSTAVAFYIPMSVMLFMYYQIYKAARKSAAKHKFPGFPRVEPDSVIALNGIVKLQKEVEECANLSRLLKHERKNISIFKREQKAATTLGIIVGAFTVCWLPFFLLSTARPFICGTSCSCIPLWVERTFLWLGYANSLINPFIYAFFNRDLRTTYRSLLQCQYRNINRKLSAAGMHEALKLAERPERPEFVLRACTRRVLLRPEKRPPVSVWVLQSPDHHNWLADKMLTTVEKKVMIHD
Chain of 5-hydroxytryptamine receptor 1D (P28221 whole entry): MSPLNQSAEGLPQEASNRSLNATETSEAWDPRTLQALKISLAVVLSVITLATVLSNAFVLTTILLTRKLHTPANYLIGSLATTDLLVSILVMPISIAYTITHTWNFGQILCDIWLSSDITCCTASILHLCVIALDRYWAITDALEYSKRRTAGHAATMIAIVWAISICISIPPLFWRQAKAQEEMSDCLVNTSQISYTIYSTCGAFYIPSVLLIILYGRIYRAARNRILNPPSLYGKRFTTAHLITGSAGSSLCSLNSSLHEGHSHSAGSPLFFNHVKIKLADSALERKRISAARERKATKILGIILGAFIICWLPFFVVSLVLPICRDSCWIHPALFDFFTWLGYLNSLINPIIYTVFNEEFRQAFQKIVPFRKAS
Chain of 5-hydroxytryptamine receptor 2A (P28223 whole entry): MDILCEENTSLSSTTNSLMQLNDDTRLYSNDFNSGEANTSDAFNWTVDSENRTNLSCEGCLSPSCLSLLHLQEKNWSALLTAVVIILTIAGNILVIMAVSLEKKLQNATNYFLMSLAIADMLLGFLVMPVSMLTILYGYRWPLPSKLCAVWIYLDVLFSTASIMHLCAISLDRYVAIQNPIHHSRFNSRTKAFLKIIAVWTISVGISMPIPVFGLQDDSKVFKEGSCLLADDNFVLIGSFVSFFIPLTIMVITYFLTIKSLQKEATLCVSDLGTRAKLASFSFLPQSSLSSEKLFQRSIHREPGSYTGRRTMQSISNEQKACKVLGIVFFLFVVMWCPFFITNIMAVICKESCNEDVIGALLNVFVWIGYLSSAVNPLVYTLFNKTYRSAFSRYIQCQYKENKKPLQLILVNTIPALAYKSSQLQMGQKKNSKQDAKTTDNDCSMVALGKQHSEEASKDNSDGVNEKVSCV
Chain of 5-hydroxytryptamine receptor 5A (P47898 whole entry): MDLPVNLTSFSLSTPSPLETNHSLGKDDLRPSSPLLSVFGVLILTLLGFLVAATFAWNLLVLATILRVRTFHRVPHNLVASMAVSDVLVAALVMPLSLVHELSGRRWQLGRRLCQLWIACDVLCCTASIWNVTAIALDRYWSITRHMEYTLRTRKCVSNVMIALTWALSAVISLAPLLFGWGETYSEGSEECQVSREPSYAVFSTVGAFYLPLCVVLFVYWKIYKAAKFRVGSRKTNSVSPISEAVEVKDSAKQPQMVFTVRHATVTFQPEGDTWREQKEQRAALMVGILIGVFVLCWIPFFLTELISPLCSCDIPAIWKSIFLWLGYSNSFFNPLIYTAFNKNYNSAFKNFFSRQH
Chain of 5-hydroxytryptamine receptor 2B (P41595 whole entry): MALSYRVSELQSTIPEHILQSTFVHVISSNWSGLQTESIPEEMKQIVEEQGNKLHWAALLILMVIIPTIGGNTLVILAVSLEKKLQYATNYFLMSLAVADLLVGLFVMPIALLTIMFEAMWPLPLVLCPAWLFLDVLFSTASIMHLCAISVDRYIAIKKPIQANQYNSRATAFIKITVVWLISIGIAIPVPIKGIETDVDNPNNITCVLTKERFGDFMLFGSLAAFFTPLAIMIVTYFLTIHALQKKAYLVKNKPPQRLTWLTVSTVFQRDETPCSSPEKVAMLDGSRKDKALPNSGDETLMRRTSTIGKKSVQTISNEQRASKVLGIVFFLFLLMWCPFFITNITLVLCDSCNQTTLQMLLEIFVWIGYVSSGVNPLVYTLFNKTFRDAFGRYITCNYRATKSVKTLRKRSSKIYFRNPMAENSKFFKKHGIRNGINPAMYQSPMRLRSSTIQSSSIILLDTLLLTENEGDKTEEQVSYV
Chain of 5-hydroxytryptamine receptor 1B (P28222 whole entry): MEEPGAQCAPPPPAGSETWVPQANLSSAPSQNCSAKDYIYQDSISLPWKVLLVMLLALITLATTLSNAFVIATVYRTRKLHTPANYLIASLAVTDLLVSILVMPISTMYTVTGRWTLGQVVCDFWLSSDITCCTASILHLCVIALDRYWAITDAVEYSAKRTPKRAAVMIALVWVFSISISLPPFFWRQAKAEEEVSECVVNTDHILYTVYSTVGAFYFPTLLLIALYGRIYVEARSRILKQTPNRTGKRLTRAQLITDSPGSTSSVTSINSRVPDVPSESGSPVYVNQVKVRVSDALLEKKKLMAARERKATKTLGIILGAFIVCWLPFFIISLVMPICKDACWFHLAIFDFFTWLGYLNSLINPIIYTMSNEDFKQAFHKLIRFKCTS
Chain of 5-hydroxytryptamine receptor 6 (P50406 whole entry): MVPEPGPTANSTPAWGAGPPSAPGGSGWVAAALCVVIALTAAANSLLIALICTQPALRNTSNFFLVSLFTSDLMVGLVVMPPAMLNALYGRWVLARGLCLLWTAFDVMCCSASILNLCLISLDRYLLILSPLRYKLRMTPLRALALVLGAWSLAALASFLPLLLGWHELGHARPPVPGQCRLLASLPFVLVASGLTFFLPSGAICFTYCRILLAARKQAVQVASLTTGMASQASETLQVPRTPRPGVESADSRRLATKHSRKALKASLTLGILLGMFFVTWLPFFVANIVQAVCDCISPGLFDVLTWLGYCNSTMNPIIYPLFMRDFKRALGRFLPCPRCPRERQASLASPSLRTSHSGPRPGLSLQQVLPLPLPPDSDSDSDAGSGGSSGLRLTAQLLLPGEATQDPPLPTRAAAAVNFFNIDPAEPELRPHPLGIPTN
Chain of 5-hydroxytryptamine receptor 1E (P28566 whole entry): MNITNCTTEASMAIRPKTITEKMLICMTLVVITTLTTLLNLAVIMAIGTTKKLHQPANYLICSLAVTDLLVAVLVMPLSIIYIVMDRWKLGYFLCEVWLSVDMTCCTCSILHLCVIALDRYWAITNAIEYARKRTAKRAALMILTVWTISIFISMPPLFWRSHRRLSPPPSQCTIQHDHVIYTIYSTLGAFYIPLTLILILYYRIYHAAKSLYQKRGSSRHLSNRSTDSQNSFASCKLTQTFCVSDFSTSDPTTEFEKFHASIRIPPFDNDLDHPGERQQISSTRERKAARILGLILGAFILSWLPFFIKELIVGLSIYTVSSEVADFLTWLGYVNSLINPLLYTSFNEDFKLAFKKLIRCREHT
Chain of 5-hydroxytryptamine receptor 4 (Q13639 whole entry): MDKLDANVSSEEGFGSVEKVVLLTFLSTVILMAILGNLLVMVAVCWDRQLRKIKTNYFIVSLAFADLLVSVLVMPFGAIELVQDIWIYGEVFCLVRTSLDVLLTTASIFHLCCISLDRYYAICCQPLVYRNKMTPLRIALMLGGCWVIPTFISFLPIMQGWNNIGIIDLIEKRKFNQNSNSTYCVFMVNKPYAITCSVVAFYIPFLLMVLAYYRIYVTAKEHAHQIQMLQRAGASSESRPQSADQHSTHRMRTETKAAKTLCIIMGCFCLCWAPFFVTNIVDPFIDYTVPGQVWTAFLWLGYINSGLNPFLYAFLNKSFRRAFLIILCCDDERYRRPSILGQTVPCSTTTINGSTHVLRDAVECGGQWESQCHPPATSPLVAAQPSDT

In data set [1], `CC1CCN(CC[C@H]2CCCN2S(=O)(=O)c2ccc3[nH]nnc3c2)CC1` showed a Ki of 25.7 nM.

For the compound `CC1CCN(CC[C@H]2CCCN2S(=O)(=O)c2ccc3cc[nH]c3c2)CC1`, the Ki in [1] is 2.4 nM; in [2], above 10000 nM.

Compound `CC1CCN(CC[C@H]2CCCN2S(=O)(=O)c2ccc3c(c2)NCC3)CC1` gave a Ki in data set [1] of 22.9 nM. That is a double-digit nanomolar value.

For `O=C(c1ccc(F)cc1)C1CCN(CC[C@H]2CCCN2S(=O)(=O)c2ccc3cc[nH]c3c2)CC1`, the Ki is 0.832 nM in data set [1] and 19.1 nM in data set [2].

For the compound `O=S(=O)(c1ccc2cc[nH]c2c1)N1CCC[C@@H]1CCN1CCC(Oc2ccc(Cl)cc2)CC1`, the inhibitory constant (Ki) in data set [3] is 2 nM; in data set [4], above 2000 nM; in data set [5] it was 562 nM; in data set [7], 851 nM; in data set [9], 63.1 nM; in data set [11], 25.1 nM. Also, the Ki was 91.2 nM in data set [13]; 269 nM in [14]; 631 nM in data set [15]; above 5010 nM in data set [16]; 182 nM in [17]; 1910 nM in data set [19]. For the same compound, the clearance in [6] is 57 mL/min/kg. Further, the ED50 in the data set listed under Cavia porcellus [8] was 2 mg/kg. This compound also displayed a bioavailability in data set [10] of 16%. Further, in data set [12], the Kp is 0.9. The same compound gave a half-life in [18] of 2 h.

Turning to `O=S(=O)(c1ccc2cc[nH]c2c1)N1CCC[C@@H]1CCN1CCC(n2c(O)nc3ccccc32)CC1`, the Ki in [1] was 0.708 nM; in data set [2], 43.7 nM.

`CC1CCN(CC[C@H]2CCCN2S(=O)(=O)c2ccc3oc(O)nc3c2)CC1` gave a Ki in [1] of 166 nM.

Take `O=C(c1ccc(Cl)cc1)C1CCN(CC[C@H]2CCCN2S(=O)(=O)c2ccc3cc[nH]c3c2)CC1`: the results for the Ki in data set [1] and in data set [2] were 0.794 nM and 93.3 nM, respectively.

Turning to `O=c1oc2ccccc2n1C1CCN(CC[C@H]2CCCN2S(=O)(=O)c2ccc3cc[nH]c3c2)CC1`, the Ki in [1] is 1.82 nM; in [2] it was 309 nM.

In [1], `CC1CCN(CC[C@H]2CCCN2S(=O)(=O)c2ccc3[nH]cnc3c2)CC1` showed an inhibition constant Ki of 6.46 nM.

In turn, `CC1CCN(CC[C@H]2CCCN2S(=O)(=O)c2cccc(O)c2)CC1.Cl` showed an ED50 in the data set on Cavia porcellus [20] of 3 mg/kg. In addition, the clearance in data set [6] is 140 mL/min/kg. For the same compound, in data set [12], the Kp stood at 0.8. In data set [18], the half-life is below 0.5 h.

`CC1CCN(CC[C@H]2CCCN2S(=O)(=O)c2ccc3c[nH]nc3c2)CC1` had a Ki in [1] of 6.46 nM. This counts as single-digit nanomolar.

With `O=S(=O)(c1ccc2cc[nH]c2c1)N1CCC[C@@H]1CCN1CCC(c2cc3ccccc3[nH]2)CC1`, the results for the Ki in [1] and in data set [2] were 6.31 nM and 89.1 nM, respectively.

In the case of `O=S(=O)(c1ccc2cc[nH]c2c1)N1CCC[C@@H]1CCN1CCC(c2c[nH]c3ccccc23)CC1`, the Ki in [1] was 0.676 nM; in data set [2], 1.29 nM.

With `O=S(=O)(c1ccc2cc[nH]c2c1)N1CCC[C@@H]1CCN1CCC(Oc2ccc(F)cc2)CC1`, the Ki in [1] is 0.501 nM; in data set [2], 30.2 nM.

Consider `CC1CCN(CC[C@H]2CCCN2S(=O)(=O)c2ccc3[nH]c(O)nc3c2)CC1`, for which the Ki in [1] is 57.5 nM.
